Consider one substance from article PMC10761937, “Functional engineering of human iPSC‐derived parasympathetic neurons enhances responsiveness to gastrointestinal hormones” (FEBS Open Bio, 2023).

The test system of this test is GLP1R. Briefly: cAMP accumulation assay, GLP1R‐HEK293T cells. The class given is cell-based, human. The conditions noted are these: 0, 0.01, 0.1, 1, 10, 100 nM GLP1, 0.5 mM IBMX, 37 °C, 30 min, cAMP ELISA, n = 3. Here is the method: HEK293T cells (Lenti‐X 293T Cell line; TaKaRa, Shiga, Japan) were maintained in Dulbecco's Modified Eagle Medium (DMEM; Fujifilm Wako Pure Chemical Industries, Osaka, Japan) supplemented with 10% fetal bovine serum (Biowest, Nuaillé, France), 1% non‐essential amino acids (NEAA) (Fujifilm Wako Pure Chemical Industries), and 1% penicillin–streptomycin (P/S) (Fujifilm Wako Pure Chemical Industries) and cultured in non‐coated culture plates at 37 °C and in an incubator with 5% CO2. The culture medium was replaced every 2–3 days. At 80–90% confluence, the cell colonies were digested into single cells using TrypLE Express (Thermo Fisher Scientific). The resulting cells were used for lentiviral transfection and agonist experiments.
Figure S1 presents the protocol used for this experiment. Lentiviral vectors were acquired from VectorBuilder (VectorBuilder Japan, Inc., Kanagawa, Japan). The mCherry expression vector (pLV‐Puro‐EF1A‐mCherry) was used as a control. pMD2.g plasmid (Addgene plasmid# 12259; RRID: Addgene 12259, Watertown, MA, USA) and psPAX2 plasmids (Addgene plasmid# 12260; RRID: Addgene 12260) were used as packaging plasmids. To produce lentiviruses, HEK293T cells were transduced with lentiviral vectors and packaging constructs containing 2 μg of lentivirus plasmids, 1 μg of pMD2.g, and 1 μg of psPAX2 plasmids using polyethyleneimine (PEI; Polysciences Inc., Warrington, PA, USA). […]
A general note: Changes in cAMP serve as a functional read-out for many G protein-coupled receptors.

Regarding “GLP1: GLP1 (4280‐v; Peptide Institute, Inc.); GLP1 (7–37) in Ca2+ imaging (HAEGTFTSDVSSYLEGQAAKEFIAWLVKGRG; Glucagon-like peptide 1(7-37); UniProt P01275 98-128, looked up)”, the cAMP production result was “increased cAMP production with increasing GLP1 concentration”.
